Measured values reported in patent US5473039A, “Polypeptide analogs of apolipoprotein E, diagnostic systems and methods using the analogs” (The Scripps Research Institute, priority 1991, dated 1995).

Experiments:
[1] = test system: ovarian theca/interstitial cells; test: ovarian androgen (androstenedione) production, LH-stimulated cultures; assay type: cell-based, rats; conditions: 48 hours
Description: The cell system used to examine the effect of various peptides and conjugates on ovarian androgen production was that described by Curtiss et al., J. Biol. Chem., 263:10965, (1988). Briefly, hypophysectomized (pituitary removed) immature female rats are sacrificed by cervical dislocation. The ovaries taken from the rats were trimmed free of fat and other non-ovarian tissues, cut into approximately six to eight pieces per ovary and dissociated in a solution of collagenase Dnaase which degrades the connective tissue releasing cell clusters. Approximately one to two hours of 37C incubation is required to dissociate the tissue. The cells were washed three times with fresh McCoy's 5A modified medium supplemented with glutamine and penicillin/streptomycin. No serum was added to this medium. The cells were cultured over night in 10 ml of medium in a T-25 flask to allow the non-steroidogenic cells to adhere. The next day non-adherent cells were recovered, washed three times with fresh media, counted and plated at a density of 1×10^3/ ml aliquotting 0.2 ml per well of a 96-well microtiter plate. All media in the experiment contains luteinizing hormone (LH) at 4 ng/ml and human high density lipoprotein (HDL) at 300 μg protein/mi. Monomeric peptides, peptide-BSA conjugates and self-conjugated peptide preparations at various concentrations (0.2 to 50 μg/ml) were added to the cells. The cells were then cultured for 48 hours at 37C, the supernatants were recovered, transferred to a clean 96-well microtiter plate and kept at -20C until the concentrations of androstenedione and progesterone were measured by radioimmunoassay. Each data point represents the average of measured androstenedione concentrations in four wells per treatment, and the standard error was less than 10% for all data points.
The ability of tandem Apo E peptide p(141-155)2 and self-conjugates of this peptide to affect ovarian androgen production was examined using the assay described in Example 4. […] After 48 hours of culture, the supernatants were collected, the androstenedione concentration measured by radioimmunoassay. […]

[2] = test system: Human peripheral blood mononuclear (PBM) cells; test: PHA-stimulated PBM cell proliferation in serum-free CFBI medium; assay type: cell-based
Protocol: In these studies, human peripheral blood mononuclear (PBM) cells were isolated and assayed for phytohemagglutinin (PHA)-stimulated proliferation as described by Pepe et al (J. Immunol., 136:3716-3723, 1986) except that the cells were resuspended and cultured in a serum-free and protein-free CFBI medium as described by Shive et al, Proc. Natl. Acad. Sci. […] After 48 h the cultures were pulsed for 18 h with […] of [^3 H]-methylthymidine and harvested onto glass fiber filters. Radioactivity of the filters was counted in a Beckman liquid scintillation counter. […] The average biological activity of each polypeptide for inhibiting lymphocyte […] proliferation is shown in Table 6, and is expressed as an average specific activity, which is the peptide concentration that causes a 50% reduction in activity.

LDL receptor [3] = molecular target: T1, LDL receptor (Homo sapiens, UniProt P01130); test: fibroblast 125I-LDL degradation; assay type: cell-based; parameters: transferred to DMEM medium with 10% lipoprotein-depleted serum (LPDS) for 48 hr to upregulate the LDL receptors; endogenous in cells; host or cells: normal fibroblasts; conditions: low concentrations of the tandem peptide
Protocol: A trimer of the p141-155 peptide, p(141-155)3, was synthesized as in Example 1 and its activity compared with p(141-155) (monomeric) and with p(141-155)2 (dimeric) peptide. Normal fibroblasts were plated in wells of a 96-well culture plate and grown for 96 hr in DMEM medium with 10% FBS. The cells were transferred to DMEM medium with 10% LPDS for 48 hr to up regulate the LDL receptors. The LDL degradation assay was performed according to Example 9 with 2 μg/ml of ^125 I-LDL (300-500 cpm/ng) in 0.2 ml/well in DMEM medium with 10% LPDS and incubated for 5 hr at 37° C. The supernatants removed from the wells were extracted with 10% TCA. The TCA soluble counts were normalized to protein content per well as measured by the Bio-Rad protein assay.

LDL receptor [4] = molecular target: T1, LDL receptor; test: 125I-LDL degradation by unstimulated THP-1 cells; assay type: cell-based; parameters: In the undifferentiated state THP-1 cells express LDL receptors that are regulated by the lipoprotein content of the culture medium; host or cells: THP-1 cells (unstimulated)
Description: THP-1 cells were acquired from American Type Culture Collection and cultured in serum-free RPMI-1640 medium supplemented with 1% Nutridoma-HU for 48 hr to upregulate the LDL receptors. LDL was isolated by ultracentrifugation and radiolabeled using the iodine monochloride method as described in Example 8 to a specific activity 200-300 cpm/ng. Greater than 99% of the ^125 I-LDL ligand was precipitable by 10% TCA. The peptides indicated in FIGS. 1A and 1B were synthesized, as described in Example 1, purified to >95% by high pressure liquid chromatography and the amino acid composition verified. All peptides were solubilized in PBS. "AI 74-105"is a control peptide derived from residues 74-105 of apolipoprotein AI, "Monomer" is p(141-155), "Tandem Peptide" is p(141-155)2, "LDL" is unlabelled LDL, and "aLDL" is acetylated LDL.
Binding and degradation of LDL was evaluated as the disappearance of acid soluble ^125 I-LDL radioactivity from the incubation over a 5-hour incubation at 37C. Various concentrations of unlabeled LDL or tandem apo E peptide were coincubated with the ^125 I-LDL to determine their effects on binding and degradation.
For assay, 5×10^5 THP-1 cells in 0.5ml DMEM were co-incubated in a 1.5ml microfuge tube with 2-5 μg/ml of ^125 I-LDL at 37° C. in the presence of various concentrations of competitors indicated in FIGS. 1A and 1B. After 5 hr the cells were pelleted at 5000 x g, the supernatants were removed and the supernatants were extracted with 10% TCA and counted to form a TCA soluble cpm. The results were expressed as B/Bo where B equals the total TCA soluble cpm in supernatant collected in the presence of LDL or peptide and Bo equals the total TCA soluble cpm in supernatant of phosphate buffered saline (PBS) treated control cells. Each point is the average of 4 replicates with standard error of the mean (SEM),10%.

T1 sequence (P01130 22-860): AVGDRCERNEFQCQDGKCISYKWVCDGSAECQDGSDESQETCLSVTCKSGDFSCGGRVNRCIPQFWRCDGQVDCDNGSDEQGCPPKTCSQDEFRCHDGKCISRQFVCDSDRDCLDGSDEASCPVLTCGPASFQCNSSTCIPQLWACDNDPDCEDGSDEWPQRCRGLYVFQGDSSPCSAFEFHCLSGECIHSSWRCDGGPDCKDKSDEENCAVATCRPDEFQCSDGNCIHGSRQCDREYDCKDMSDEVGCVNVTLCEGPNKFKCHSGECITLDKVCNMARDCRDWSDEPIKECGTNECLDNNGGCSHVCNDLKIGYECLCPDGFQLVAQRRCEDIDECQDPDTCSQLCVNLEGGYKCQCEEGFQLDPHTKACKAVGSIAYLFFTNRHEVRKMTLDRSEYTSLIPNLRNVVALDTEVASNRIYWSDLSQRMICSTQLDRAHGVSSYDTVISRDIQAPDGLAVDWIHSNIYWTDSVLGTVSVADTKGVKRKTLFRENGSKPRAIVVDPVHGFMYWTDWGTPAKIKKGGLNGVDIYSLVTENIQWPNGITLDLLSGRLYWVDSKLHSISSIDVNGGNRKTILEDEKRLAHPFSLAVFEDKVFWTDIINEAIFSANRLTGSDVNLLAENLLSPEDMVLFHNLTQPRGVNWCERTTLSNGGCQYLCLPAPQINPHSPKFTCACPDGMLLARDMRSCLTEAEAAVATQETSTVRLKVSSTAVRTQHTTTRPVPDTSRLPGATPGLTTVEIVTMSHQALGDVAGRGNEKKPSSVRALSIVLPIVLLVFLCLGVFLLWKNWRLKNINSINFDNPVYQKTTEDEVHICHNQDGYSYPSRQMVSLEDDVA

effect on LDL degradation by fibroblasts (LDL receptor [3]): significant enhancement
molar excess compared with LDL required to achieve 50% inhibition of degradation (LDL receptor [4]): ~200 fold
inhibition at 12.5 µM (LDL receptor [4]; THP-1, 12.5 uM): 80%
effect on LDL degradation by THP-1 cells (LDL receptor [4]; low concentrations of the tandem peptide): significant enhancement
IC50 (LDL receptor [4]; read-out: concentration inhibiting 125I-LDL degradation by 50%): 5 µM
Structure (SMILES): CC(C)C[C@H](NC(=O)[C@H](CC(=O)O)NC(=O)[C@H](CC(=O)O)NC(=O)[C@H](C)NC(=O)[C@H](CC(=O)O)NC(=O)[C@H](CCCNC(=N)N)NC(=O)[C@H](CC(C)C)NC(=O)[C@H](CC(C)C)NC(=O)[C@H](CCCNC(=N)N)NC(=O)[C@H](CCCCN)NC(=O)[C@H](CCCNC(=N)N)NC(=O)[C@H](CC(C)C)NC(=O)[C@H](CCCCN)NC(=O)[C@H](CCCNC(=N)N)NC(=O)[C@H](CC(C)C)NC(=O)[C@H](CC(C)C)NC(=O)[C@H](CC(=O)O)NC(=O)[C@H](CC(=O)O)NC(=O)[C@H](C)NC(=O)[C@H](CC(=O)O)NC(=O)[C@H](CCCNC(=N)N)NC(=O)[C@H](CC(C)C)NC(=O)[C@H](CC(C)C)NC(=O)[C@H](CCCNC(=N)N)NC(=O)[C@H](CCCCN)NC(=O)[C@H](CCCNC(=N)N)NC(=O)[C@H](CC(C)C)NC(=O)[C@H](CCCCN)NC(=O)[C@H](CCCNC(=N)N)NC(=O)[C@@H](N)CC(C)C)C(=O)O [p(141-155)2]
concentrations at which androstenedione production was enhanced [1]: less than 0.04 μg/ml
concentrations that inhibited androstenedione production ([1]; dose-dependent): 0.2 to 2 µg/mL
biologic activity (inhibition of lymphocyte proliferation) [2]: loss of biologic activity
peptide concentration above which uptake of tritiated thymidine / lymphocyte proliferation was inhibited [2]: above 4 uM
IC50 ([2]; read-out: Average Specific Activity (peptide concentration that causes a 50% reduction in activity)): 4.8 ± 1.1 µM
